Drawing on paper PMC12040169 (PLOS Biology, 2025), this text covers viability for 80 compounds.

The nature of the first series: in vitro. As to conditions: human, hela cells, % viability.
In general, viability refers to a read-out of living cells in per cent, often relative to untreated cells. For the compound `COC(=O)N1CCN(C(=O)c2cc(C(C)C)n3ncnc3n2)CC1` [CBK306509], the viability at 28.5 h, 10 µM amounted to 85.4%.

For the compound `CCN(CC)c1c(C)nc2ccc(C(=O)N(C)CCN(C)C)cn12` [CBK145950], the viability at 28.5 h, 10 µM was 90.6%.

Regarding `Clc1ccc(-n2c(SCc3nc4ccccc4[nH]3)nnc2-c2ccncc2)cc1` [CBK267557], the viability at 28.5 h, 10 µM was 100%.

Turning to `O=C(c1cccnc1)N1C2CCC1CC(c1ccc(F)cc1)C2` (centres unmarked) [CBK283762], the viability at 28.5 h, 10 µM came to 98.3%.

For the compound `c1nc2nc[nH]c(N3CCN(Cc4ccc5c(c4)OCO5)CC3)c-2n1` [CBK287283], the viability at 28.5 h, 10 µM was 83.5%.

Take `O=C1NC2(CCc3ccccc31)CCN(C(=O)CCn1cccn1)C2` (centres unmarked) [CBK283352]: the viability at 28.5 h, 10 µM was 91.2%.

In the case of `CCCN1CCC(CNC(=O)c2cc3c(OC)cccc3n2C)CC1` [CBK283255], the viability at 28.5 h, 10 µM is 90.1%.

In the case of `COCCN1CCn2c(nc3cc(NC(=O)c4ccccc4)ccc32)C1` [CBK307410], the viability at 28.5 h, 10 µM turned out to be 89.4%.

Take `c1ccc(OCCCCN2CCCC23CCc2[nH]c4ccccc4c2C3)cc1` (centres unmarked) [CBK092200T]: the viability at 28.5 h, 10 µM is 89.8%.

Regarding `c1coc(CNc2nc(-c3ccoc3)cn3ccnc23)c1` [CBK066610], the viability at 28.5 h, 10 µM worked out at 98.8%.

`Cc1ccn(CCNC(=O)CC2CC3CCC2C3)n1` (centres unmarked) [CBK282068]: the viability at 28.5 h, 10 µM was 110%.

For the compound `CC(NC(=O)c1ncoc1-c1ccc(F)cc1)c1cccnc1` (centres unmarked) [CBK282358], the viability at 28.5 h, 10 µM was determined as 103%.

As to `Cn1cc(CNS(=O)(=O)c2ccc(Br)c(F)c2)cn1` [CBK305539], the viability at 28.5 h, 10 µM was determined as 87.7%.

Turning to `Cc1ccc(C)c(S(=O)(=O)Nc2ccc(O)c(Sc3nnc[nH]3)c2)c1` [CBK266894], the viability at 28.5 h, 10 µM turned out to be 95.2%.

For `Cc1nc2c(OCc3ccc(F)c(F)c3)cccn2c1N(C)CC1CC1` [CBK147276], the viability at 28.5 h, 10 µM was 91.9%.

In the case of `CCc1nc(C)ccc1O` [CBK026535C], the viability at 28.5 h, 10 µM was 91%.

Turning to `O=C(O)c1cccc(Sc2cc(N3CCCC3)ncn2)c1` [CBK093586], the viability at 28.5 h, 10 µM was 113%.

As to `CCCOC1CCCN(c2nccc(-c3cc(C(=O)O)ccn3)n2)C1` (centres unmarked) [CBK307703], the viability at 28.5 h, 10 µM stood at 101%.

As for `COc1ccccc1CN(CN1C(=O)c2ccccc2C1=O)CN1C(=O)c2ccccc2C1=O` [CBK265039], the viability at 28.5 h, 10 µM was 94.9%.

Take `COc1cc(/C=N/Nc2nonc2N)cc(OC)c1OC` [CBK025758]: the viability at 28.5 h, 10 µM worked out at 73.2%.

Take `O=[N+]([O-])c1ccc(S(=O)(=O)Nc2nnc(C3CCCCC3)s2)cc1` [CBK200049]: the viability at 28.5 h, 10 µM was found to be 94.8%.

In the case of `CCOC(=O)C(C)n1nc(CC)n2c(cc3ccsc32)c1=O` (centres unmarked) [CBK284127], the viability at 28.5 h, 10 µM is 103%.

`O=C(c1c[nH]c2ccccc12)C(O)C(c1ccccc1)N1CCCCC1` (centres unmarked) [CBK267799]: the viability at 28.5 h, 10 µM was found to be 94.1%.

In the case of `O=C(NC1CCCC1)c1ccccc1Cl` [CBK001992], the viability at 28.5 h, 10 µM was 98.3%.

As to `CCOC(=O)N1CCN(C(=O)c2c(C)nn(C)c2Cl)CC1` [CBK304522], the viability at 28.5 h, 10 µM was 92.6%.

In the case of `CC(NC(=O)C1CCN(CCOc2ccc(F)cc2)CC1)c1cccc2ccccc12` (centres unmarked) [CBK148634], the viability at 28.5 h, 10 µM worked out at 93.6%.

With `O=c1ccn([C@H]2C[C@@H](O)[C@@H](CO)O2)c(=O)[nH]1` [CBK201316], the viability at 28.5 h, 10 µM was 98.3%.

Regarding `Cc1ccnc2nc(C(=O)Nc3ccc4c(c3)CCC4)nn12` [CBK295194], the viability at 28.5 h, 10 µM worked out at 74.9%.

With `COc1ccc(NC(=O)CSc2ncnc3c2oc2ccccc23)c(OC)c1` [CBK287395], the viability at 28.5 h, 10 µM turned out to be 87%.

Regarding `C=CCO[C@@H]1C[C@H]2C(=O)N3CCN(C(=O)NC4CCCCC4)C[C@H]3C(=O)N2C1` [CBK289619], the viability at 28.5 h, 10 µM worked out at 82.5%.

With `CNC(=O)C1(Cc2cccc(-c3cccs3)c2)CCN(C(=O)Cc2ccccc2)CC1` [CBK285745], the viability at 28.5 h, 10 µM came to 93.3%.

With `COc1cc(C=O)ccc1OCC(=O)Nc1ccc(C)c(Cl)c1` [CBK266190], the viability at 28.5 h, 10 µM was 111%.

Regarding `COc1ccc2c(c1)CCC1CN(C)N=C21` (centres unmarked) [CBK010890], the viability at 28.5 h, 10 µM was found to be 100%.

As for `CCCn1ccc(CNCC(c2ccnn2C)C(C)C)c1` (centres unmarked) [CBK304861], the viability at 28.5 h, 10 µM turned out to be 87%.

In the case of `Cc1nc2cc(C(=O)N3CCc4[nH]c5ccccc5c4C3)ccc2n1C` [CBK281842], the viability at 28.5 h, 10 µM was found to be 60.6%.

Consider `COc1ccc2c(c1)CCCN2C(=O)c1sc2ccccc2c1Cl` [CBK056960], for which the viability at 28.5 h, 10 µM is 90.2%.

For `O=C(CN1CCCCCC1=O)NCC(CO)Cc1ccsc1` (centres unmarked) [CBK306763], the viability at 28.5 h, 10 µM was 118%.

For the compound `O=C(NC1CCCC1)c1ccc2nccnc2c1` [CBK200217], the viability at 28.5 h, 10 µM amounted to 102%.

Take `Cc1nn(C)c(C)c1CCNC(=O)CC1CCCCN1C` (centres unmarked) [CBK281774]: the viability at 28.5 h, 10 µM stood at 97.6%.

On to `COCCCOc1cncc(NC(C)C)n1` [CBK115880], for which the viability at 28.5 h, 10 µM was 89%.

In the case of `O=C(Cc1c(O)c2ccccc2[nH]c1=O)NCc1ccccc1Cl` [CBK160320], the viability at 28.5 h, 10 µM stood at 88%.

On to `Cc1c(C(=O)N2CCCC2C(N)=O)nnn1Cc1ccc(F)cc1F` (centres unmarked) [CBK305925], for which the viability at 28.5 h, 10 µM was 94.5%.

For `COc1cc(F)cc(OC2CCNCC2)c1NC(=O)C1(c2ccccc2)CCCCC1` [CBK050241T], the viability at 28.5 h, 10 µM stood at 107%.

In the case of `COCCCNCC#CCOc1ccccc1OC` [CBK267419G], the viability at 28.5 h, 10 µM worked out at 94.5%.

As for `O=C(Cn1cccc2cc(-c3ccc(F)cc3)nc1-2)N1CCOCC1` [CBK284809], the viability at 28.5 h, 10 µM amounted to 87.5%.

For the compound `Cn1cc([C@H]2C[C@@H](O)[C@@H](CO)O2)c(=O)n(C)c1=O` [CBK201272], the viability at 28.5 h, 10 µM was found to be 97.3%.

`CC(CO)(CO)Nc1ccc(C(F)(F)F)cc1[N+](=O)[O-]` [CBK262806]: the viability at 28.5 h, 10 µM is 61.9%.

On to `Cc1cc(Cl)c(S(=O)(=O)Nc2ccon2)cc1OCC(=O)NC1CCCCC1` [CBK266785], for which the viability at 28.5 h, 10 µM stood at 93.5%.

With `CC(=O)c1ccc(NC(=O)N2Cc3nc[nH]c3C[C@H]2c2nc(-c3ccc(C)cc3)no2)cc1` [CBK288959], the viability at 28.5 h, 10 µM was 83.6%.

`S=c1ccc(N/N=C/C2CC=CCC2)n[nH]1` (centres unmarked) [CBK018655]: the viability at 28.5 h, 10 µM is 95.3%.

In the case of `N[C@@H]1CCCN(Cc2ccncc2)[C@H]1c1ccccc1F` [CBK283459], the viability at 28.5 h, 10 µM is 88.4%.

Turning to `CCNC(=O)N1CC2(CCN(C/C=C/c3ccccc3)CC2)c2ccccc21` [CBK144596T], the viability at 28.5 h, 10 µM was determined as 97.6%.

Take `O=C(Nc1ccccc1C(=O)N1CCN(Cc2ccccc2)CC1)c1ccccn1` [CBK263512]: the viability at 28.5 h, 10 µM worked out at 106%.

With `Cc1cccc([C@@H]2CN(Cc3ccccc3)C[C@]23CCCC(=O)N3)n1` [CBK283350], the viability at 28.5 h, 10 µM stood at 107%.

For `c1ccc(N2CCN(CC3CN(c4ccccc4)c4ccccc4O3)CC2)cc1` (centres unmarked) [CBK066876], the viability at 28.5 h, 10 µM came out at 86%.

Regarding `Cc1c(C(=O)NC(=S)Nc2ccc(O)c(-c3nc4ccccc4s3)c2)oc2ccccc12` [CBK264223], the viability at 28.5 h, 10 µM is 93.2%.

Turning to `O=S(=O)(c1ccccc1)c1ccc(N2CCNCC2)cc1` [CBK018452], the viability at 28.5 h, 10 µM stood at 97.8%.

As for `CCc1ccc(Oc2cc(N3CCC(C(=O)NC4CC4)CC3)ncn2)cc1` [CBK287854], the viability at 28.5 h, 10 µM stood at 102%.

For `Cn1cc(C(=O)NC2CCN(C(=O)c3ccc(C#N)cc3)CC2)cn1` [CBK305683], the viability at 28.5 h, 10 µM is 94.4%.

In the case of `Cc1ccc(-n2c(SCC(=O)NC(C)Cc3ccccc3)nc3sc4c(c3c2=O)CC(C)(C)OC4)cc1` (centres unmarked) [CBK267714], the viability at 28.5 h, 10 µM is 94.7%.

As for `CSc1ccc([C@H]2[C@H](C(=O)O)CC(=O)N2Cc2ccccc2)cc1` [CBK286934], the viability at 28.5 h, 10 µM was determined as 91.7%.

As for `O=C(CC(CN1CCN(c2cccc(Cl)c2)CC1)C(=O)O)NCc1ccccc1` (centres unmarked) [CBK286787], the viability at 28.5 h, 10 µM amounted to 100%.

With `CN1CCC(N(C)C(=O)Nc2cccnc2)C1` (centres unmarked) [CBK156026], the viability at 28.5 h, 10 µM worked out at 93.8%.

For the compound `Nc1ncnc2c1cnn2[C@H]1C[C@@H](O)[C@@H](CO)O1` [CBK201325], the viability at 28.5 h, 10 µM stood at 98%.

As to `COc1ccc(CCNc2ccccc2[N+](=O)[O-])cc1OC` [CBK074819], the viability at 28.5 h, 10 µM was determined as 104%.

Turning to `Cc1ccccc1C(=O)NCCNC(=O)c1nonc1N` [CBK267677], the viability at 28.5 h, 10 µM stood at 103%.

Regarding `FC(F)(F)c1ccnc(OCCOc2ccc(Cl)cc2)n1` [CBK115838], the viability at 28.5 h, 10 µM is 90.8%.

For the compound `COc1ccc2c(c1)cc(C(=O)N(C)CCCn1nc(C)cc1C)n2C` [CBK307196], the viability at 28.5 h, 10 µM was 81.4%.

Take `Cc1n[nH]cc1CN(C)c1cc([C@H]2C[C@@H](N)C2)nc(C2CC2)n1` [CBK307544]: the viability at 28.5 h, 10 µM came to 110%.

On to `CC(C)(C)c1cc(CCC(=O)N/N=C/c2ccco2)cc(C(C)(C)C)c1O` [CBK261960], for which the viability at 28.5 h, 10 µM was 110%.

In the case of `COc1ccc(-c2ccnc3[nH]c(=O)ccc23)cc1C` [CBK073726], the viability at 28.5 h, 10 µM came to 110%.

On to `Cc1cc(Cl)ccc1NC(=S)NCCc1ccc(S(N)(=O)=O)cc1` [CBK264888], for which the viability at 28.5 h, 10 µM was 88.5%.

In the case of `O=C(Nc1ccccc1)Nc1ccc2c(c1)S(=O)(=O)c1cc(NC(=O)Nc3ccccc3)ccc1-2` [CBK262320], the viability at 28.5 h, 10 µM was found to be 94.6%.

With `COc1ccccc1CNC(=O)c1ccc(Cl)c(S(=O)(=O)N2CCOCC2)c1` [CBK267060], the viability at 28.5 h, 10 µM is 69.3%.

On to `CCOc1cc(/C=C2/NC(=O)N(c3ccccc3)C2=O)cc(Cl)c1OCc1cccc(C(=O)O)c1` [CBK265160], for which the viability at 28.5 h, 10 µM was 92%.

In the case of `O=C(O)CNS(=O)(=O)c1cc(Br)c(Cl)s1` [CBK034455], the viability at 28.5 h, 10 µM was determined as 114%.

Turning to `OC(CNCCc1c[nH]c2ccccc12)COc1cccc2c1CCCC2` (centres unmarked) [CBK003831], the viability at 28.5 h, 10 µM came to 93.9%.

On to `Fc1ccc2nc(Nc3nnc(-c4ccco4)o3)sc2c1` [CBK287488], for which the viability at 28.5 h, 10 µM was found to be 94.5%.

As for `Cc1oc2[nH]c(CN(C)CCOc3ccc(Cl)cc3)nc(=N)c2c1C(=O)O` [CBK279463], the viability at 28.5 h, 10 µM was determined as 102%.

The same series, now with this note: human, hela cells, % viability, bulk resorufin, single well.
Consider `CC(=O)c1ccc(-c2ccc3c(c2)COC2(CCN(C(C)=O)CC2)O3)s1` [CBK060967], for which the viability at 28.5 h, 10 µM was determined as 109%.
